Molecules are shown by their SMILES.

A word on the IC50: it is the concentration that inhibits the measured activity by half.

The experiment concerns the target T1, IL-17A/A (Homo sapiens, UniProt Q16552).
T1 construct: purchased Genscript Z03228
T1 sequence (Q16552 24-155): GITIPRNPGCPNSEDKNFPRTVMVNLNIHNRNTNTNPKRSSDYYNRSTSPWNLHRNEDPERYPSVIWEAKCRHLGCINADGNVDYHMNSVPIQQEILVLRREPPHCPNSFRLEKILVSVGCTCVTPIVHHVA
As to the kind of experiment: HEK-Blue IL-17A/A inhibition assay (SEAP reporter). The format is cell-based. Conditions: HEK-Blue cells (HEK 293 expressing IL-17RA, IL-17RC, Act1); IL-17A/A stimulation; 20 hours; SEAP read at A630; 4-parameter fit. As to the method:
The HEK-Blue #NC108637 […]. Cells were grown and prepared for assays according to the manufacturer's instructions. This cell line consists of HEK 293 cells that were designed to expressed IL-17R^A, IL-17RC, and the ActI adapter molecule, the combination of which. when stimulated by IL-17A/A activates a NFtcB promoter and drives expression of a recombinant Secreted Alkaline Phosphatase (SEAP) geneprotein. Media from the cells is then added to a development reagent (Quanti-Blue Substrate, Fisher #NC971 1613), and read at A630.
Compounds were titrated in DMSO. with a top final compound concentration of 10 uM, 1 uM, or 0.3 uM, and added to the cells immediately before adding IL-17A/A (Genscript #Z03228). The cells, compound, and IL-17A/A were then incubated for 20 hours before media was removed for SEAP analysis. The resulting inhibition curve was then analyzed using Graphpad Prism 7.0, and IC50 values were determined using a 4-parameter nonlinear fit. DMSO was added to a universal final concentration of 0.1% to optimze background.
Regarding `C=Cc1cc(NC(=O)[C@@H](NC(=O)c2ccnn2C(C)C)C(C2CC2)C2CC2)c(F)cc1C(C)C(=O)NCC(F)(F)F` (mixture of isomers) [Compound 110, N-((2S)-1,1-dicyclopropyl-3-((2-fluoro-4-(1-oxo-1-((2,2,2-trifluoroethyl)amino)propan-2-yl)-5-vinylphenyl)amino)-3-oxopropan-2-yl)-1-isopropyl-1H-pyrazole-5-carboxamide], the 50% inhibitory concentration (IC50) was less than 100 nM.
Consider `CC(C(=O)NCC(F)(F)F)c1cc(F)c(NC(=O)[C@@H](NC(=O)c2ccnn2C(C)C)C(C2CC2)C2CC2)cc1Br` (mixture of isomers) [Compound 113, N-((2S)-1-((5-bromo-2-fluoro-4-(1-oxo-1-((2,2,2-trifluoroethyl)amino)propan-2-yl)phenyl)amino)-3,3-dicyclopropyl-1-oxopropan-2-yl)-1-isopropyl-1H-pyrazole-5-carboxamide], for which the IC50 is 100 to 1000 nM.
For `CCn1nccc1C(=O)N[C@H](C(=O)Nc1ccc([C@@H](C)C(=O)N(C)CC(F)(F)F)cc1F)C1CCCCCC1` (single isomer, unassigned) [Compound 3], the 50% inhibitory concentration (IC50) fell in the range of 100 to 1000 nM.
On to `CCn1nccc1C(=O)N[C@H](C(=O)Nc1ccc([C@H](C)C(=O)N(C)CC(F)(F)F)cc1F)C1CCCCCC1` (single isomer, unassigned) [Compound 4], for which the 50% inhibitory concentration (IC50) is less than 100 nM.
`CC(C)n1nccc1C(=O)N[C@H](C(=O)Nc1ccc([C@H](C)C(=O)N2CCOCC2C(F)(F)F)cc1F)C(C1CC1)C1CC1` (single isomer, unassigned) [Compound 18]: the IC50 was less than 100 nM.
With `CC(C)n1nccc1C(=O)N[C@H](C(=O)Nc1ccc([C@H](C)C(=O)N2CCOCC2C(F)(F)F)cc1F)C(C1CC1)C1CC1` (single isomer, unassigned) [Compound 19], the IC50 was 100 to 1000 nM.
Take `CC(C)n1nccc1C(=O)N[C@H](C(=O)Nc1ccc([C@H](C)C(=O)N2CCCCC2C(F)(F)F)cc1F)C(C1CC1)C1CC1` (single isomer, unassigned) [Compound 20]: the 50% inhibitory concentration (IC50) is 100 to 1000 nM.
In the case of `CC(C)n1nccc1C(=O)N[C@H](C(=O)Nc1ccc([C@H](C)C(=O)N2CCCCC2C(F)(F)F)cc1F)C(C1CC1)C1CC1` (single isomer, unassigned) [Compound 21], the half-inhibitory concentration (IC50) was in the range of 100 to 1000 nM.
With `CC(C)n1nccc1C(=O)N[C@H](C(=O)Nc1ccc([C@H](C)C(=O)NC(CO)C(F)(F)F)cc1F)C(C1CC1)C1CC1` (single isomer, unassigned) [Compound 28], the IC50 lay in the range of 100 to 1000 nM.
For `CC(C)n1nccc1C(=O)N[C@H](C(=O)Nc1ccc([C@H](C)C(=O)NC(CO)C(F)(F)F)cc1F)C(C1CC1)C1CC1` (single isomer, unassigned) [Compound 29], the IC50 is less than 100 nM.
Turning to `CC(C)n1nccc1C(=O)N[C@H](C(=O)Nc1ccc([C@H](C)C(=O)N2CCOC2C(F)(F)F)cc1F)C(C1CC1)C1CC1` (single isomer, unassigned) [Compound 48], the IC50 was in the range of 100 to 1000 nM.
In the case of `CC(C)n1nccc1C(=O)N[C@H](C(=O)Nc1ccc([C@H](C)C(=O)N2CCOC2C(F)(F)F)cc1F)C(C1CC1)C1CC1` (single isomer, unassigned) [Compound 49] it was 100 to 1000 nM; in that of `CCN(CC(F)(F)F)C(=O)C(C)c1ccc(NC(=O)[C@@H](NC(=O)c2ccnn2CC)C2CCCCCC2)c(F)c1` (single isomer, unassigned) [Compound 69], more than 1000 nM.
Regarding `CCN(CC(F)(F)F)C(=O)C(C)c1ccc(NC(=O)[C@@H](NC(=O)c2ccnn2CC)C2CCCCCC2)c(F)c1` (single isomer, unassigned) [Compound 70], the half-maximal inhibitory concentration (IC50) lay within 100 to 1000 nM.
For `CCn1nccc1C(=O)N[C@H](C(=O)Nc1cc(C)c(C(C)C(=O)N(C)CC(F)(F)F)cc1F)C(C1CC1)C1CC1` (single isomer, unassigned) [Compound 76], the half-maximal inhibitory concentration (IC50) was less than 100 nM.
Regarding `CCn1nccc1C(=O)N[C@H](C(=O)Nc1cc(C)c(C(C)C(=O)N(C)CC(F)(F)F)cc1F)C(C1CC1)C1CC1` (single isomer, unassigned) [Compound 77], the IC50 lay within 100 to 1000 nM.
